The structures appear in SMILES notation.

T1 sequence (P14416 whole entry): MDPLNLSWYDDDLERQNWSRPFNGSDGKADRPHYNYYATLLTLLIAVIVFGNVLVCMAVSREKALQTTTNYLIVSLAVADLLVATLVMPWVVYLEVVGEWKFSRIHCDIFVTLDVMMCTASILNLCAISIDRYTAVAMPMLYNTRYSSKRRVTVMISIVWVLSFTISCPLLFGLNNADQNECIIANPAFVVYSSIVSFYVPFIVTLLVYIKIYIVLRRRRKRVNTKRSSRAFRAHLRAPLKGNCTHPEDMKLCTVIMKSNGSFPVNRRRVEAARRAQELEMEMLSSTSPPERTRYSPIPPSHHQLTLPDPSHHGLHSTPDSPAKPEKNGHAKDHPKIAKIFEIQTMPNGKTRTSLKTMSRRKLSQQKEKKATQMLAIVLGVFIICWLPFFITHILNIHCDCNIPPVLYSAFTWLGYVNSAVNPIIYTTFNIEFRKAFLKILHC

The first data set has as its target T1, D(2) dopamine receptor (Homo sapiens, UniProt P14416). In words: biochemical.
Conditions: not given
The data set is classed as cell-based.
Compound `O=C1CCc2ccc(OCCCCN3CCCN(c4ccc(O)c5c4OCC(=O)N5)CC3)cc2N1` had a Ki of 1.6 nM.
`Oc1ccc(N2CCN(CCCCOc3ccn4nccc4c3)CC2)c2cccnc12`: the Ki worked out at 33 nM.
The compound `CCCCn1cc(CCCOc2ccc(C(=O)NCCCN3CCCN(c4ccc(O)c5[nH]c(=O)ccc45)CC3)cc2OC)nn1` yielded a Ki of 350 nM.
As to `O=C1COc2c(N3CCN(CCCCOc4ccn5nccc5c4)CC3)ccc(O)c2N1`, the Ki amounted to 2 nM. This Ki lies about 180-fold lower than the previous one.
The same measure, in the same setting: next, `O=C1CCc2ccc(OCCCCN3CCN(c4ccc(O)c5oc(=O)ccc45)CC3)cc2N1`: 4.8 nM.

A further data set deals with T1, D(2) dopamine receptor. In words: biochemical. The format is cell-based.
Conditions: not given
This is another data set of the same source.
With `O=C1CCc2ccc(OCCCCN3CCCN(c4ccc(O)c5c4OCC(=O)N5)CC3)cc2N1`, the Ki was determined as 1.6 nM.
Still for that read-out and setting: next, `Oc1ccc(N2CCN(CCCCOc3ccn4nccc4c3)CC2)c2cccnc12`: 25 nM; `CCCCn1cc(CCCOc2ccc(C(=O)NCCCN3CCCN(c4ccc(O)c5[nH]c(=O)ccc45)CC3)cc2OC)nn1`: 440 nM; `O=C1COc2c(N3CCN(CCCCOc4ccn5nccc5c4)CC3)ccc(O)c2N1`: 0.86 nM.
`O=C1CCc2ccc(OCCCCN3CCN(c4ccc(O)c5oc(=O)ccc45)CC3)cc2N1` yielded a Ki of 2 nM.

Another data set has as its target T2, D(4) dopamine receptor (Homo sapiens, UniProt P21917).
T2 sequence (P21917 whole entry): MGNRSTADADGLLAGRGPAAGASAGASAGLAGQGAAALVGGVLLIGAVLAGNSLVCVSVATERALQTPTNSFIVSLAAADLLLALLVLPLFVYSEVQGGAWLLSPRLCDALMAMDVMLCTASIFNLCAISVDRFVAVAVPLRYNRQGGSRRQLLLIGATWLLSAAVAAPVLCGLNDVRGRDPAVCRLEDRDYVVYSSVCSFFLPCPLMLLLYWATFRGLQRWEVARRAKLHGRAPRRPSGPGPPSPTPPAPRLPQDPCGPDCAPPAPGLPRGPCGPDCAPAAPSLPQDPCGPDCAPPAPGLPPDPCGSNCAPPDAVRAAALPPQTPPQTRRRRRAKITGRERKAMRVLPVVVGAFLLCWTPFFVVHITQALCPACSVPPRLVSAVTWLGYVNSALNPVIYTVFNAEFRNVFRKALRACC
In words: biochemical. The data set is classed as cell-based.
Conditions: not given
In turn, `O=C1CCc2ccc(OCCCCN3CCCN(c4ccc(O)c5c4OCC(=O)N5)CC3)cc2N1` gave a Ki of 60 nM.
In the case of `Oc1ccc(N2CCN(CCCCOc3ccn4nccc4c3)CC2)c2cccnc12`, the Ki stood at 55 nM.
Still for that read-out and setting: next, `CCCCn1cc(CCCOc2ccc(C(=O)NCCCN3CCCN(c4ccc(O)c5[nH]c(=O)ccc45)CC3)cc2OC)nn1`: 3200 nM; `O=C1COc2c(N3CCN(CCCCOc4ccn5nccc5c4)CC3)ccc(O)c2N1`: 4.8 nM; `O=C1CCc2ccc(OCCCCN3CCN(c4ccc(O)c5oc(=O)ccc45)CC3)cc2N1`: 870 nM.

The target in the next data set is T1, D(2) dopamine receptor.
Assay: not given
The data set is classed as cell-based, HEK-293T.
Conditions: not given
The compound `O=C1CCc2ccc(OCCCCN3CCCN(c4ccc(O)c5c4OCC(=O)N5)CC3)cc2N1` came in with an EC50 of 470 nM.
The same measure, in the same setting: for `CCCCn1cc(CCCOc2ccc(C(=O)NCCCN3CCCN(c4ccc(O)c5[nH]c(=O)ccc45)CC3)cc2OC)nn1` the value was 680 nM.
On the same count and under the same terms, next, `O=C1COc2c(N3CCN(CCCCOc4ccn5nccc5c4)CC3)ccc(O)c2N1`: 62 nM.

For a further data set, the target named is T1, D(2) dopamine receptor.
Assay: not given
The format is functional, cell-based, HEK-293T.
Conditions: not given
The source holds these as a separate data set.
The compound `O=C1CCc2ccc(OCCCCN3CCCN(c4ccc(O)c5c4OCC(=O)N5)CC3)cc2N1` registered an EC50 of 78 nM.

Another data set has as its target T1, D(2) dopamine receptor.
Assay: not given
The data set is classed as cell-based, HEK-293T.
Conditions: not given
This is another data set of the same source.
`O=C1CCc2ccc(OCCCCN3CCCN(c4ccc(O)c5c4OCC(=O)N5)CC3)cc2N1` registered an EC50 of 630 nM.

A further data set relates to HEK293. In words: Cytotoxicity against HEK293 cells. The following applies: human. The data set is classed as cell-based.
For the compound `O=C1CCc2ccc(OCCCCN3CCCN(c4ccc(O)c5c4OCC(=O)N5)CC3)cc2N1`, the Activity entry is given as “Non-Toxic”.
As for `Oc1ccc(N2CCN(CCCCOc3ccn4nccc4c3)CC2)c2cccnc12`, the Activity entry is “Non-Toxic”.
As to `CCCCn1cc(CCCOc2ccc(C(=O)NCCCN3CCCN(c4ccc(O)c5[nH]c(=O)ccc45)CC3)cc2OC)nn1`, the Activity entry is “Non-Toxic”.
With `O=C1COc2c(N3CCN(CCCCOc4ccn5nccc5c4)CC3)ccc(O)c2N1`, the Activity result was “Non-Toxic”.
The same measure, in the same setting: next, `O=C1CCc2ccc(OCCCCN3CCN(c4ccc(O)c5oc(=O)ccc45)CC3)cc2N1`: “Non-Toxic”.

In another data set the target is T1, D(2) dopamine receptor.
Assay: not given
The following applies: HEK-293T, at 1e-07 to 100 µM.
Turning to `O=C1CCc2ccc(OCCCCN3CCCN(c4ccc(O)c5c4OCC(=O)N5)CC3)cc2N1`, the Emax is 26%.

The target in another data set is D(1A) dopamine receptor (Homo sapiens, UniProt P21728). In words: biochemical.
D(1A) dopamine receptor, sequence (P21728 whole entry): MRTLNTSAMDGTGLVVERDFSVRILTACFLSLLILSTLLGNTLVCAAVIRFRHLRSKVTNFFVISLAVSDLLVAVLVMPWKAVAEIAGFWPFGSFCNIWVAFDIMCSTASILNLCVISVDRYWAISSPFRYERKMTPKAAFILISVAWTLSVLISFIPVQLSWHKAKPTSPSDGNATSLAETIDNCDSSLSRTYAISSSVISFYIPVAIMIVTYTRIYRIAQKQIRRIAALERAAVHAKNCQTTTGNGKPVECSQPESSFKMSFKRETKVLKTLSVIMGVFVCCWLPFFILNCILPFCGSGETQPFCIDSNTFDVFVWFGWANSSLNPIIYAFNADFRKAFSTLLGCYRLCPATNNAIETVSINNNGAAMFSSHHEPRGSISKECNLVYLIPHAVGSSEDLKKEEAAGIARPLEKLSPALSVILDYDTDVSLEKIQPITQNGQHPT
Conditions: not given
As for `O=C1CCc2ccc(OCCCCN3CCCN(c4ccc(O)c5c4OCC(=O)N5)CC3)cc2N1`, the Ki came to 2700 nM.
The same measure, in the same setting: next, `Oc1ccc(N2CCN(CCCCOc3ccn4nccc4c3)CC2)c2cccnc12`: 1100 nM.
The compound `CCCCn1cc(CCCOc2ccc(C(=O)NCCCN3CCCN(c4ccc(O)c5[nH]c(=O)ccc45)CC3)cc2OC)nn1` returned a Ki of 17000 nM.
The same measure, in the same setting: for `O=C1COc2c(N3CCN(CCCCOc4ccn5nccc5c4)CC3)ccc(O)c2N1` the value was 2300 nM.
Consider `O=C1CCc2ccc(OCCCCN3CCN(c4ccc(O)c5oc(=O)ccc45)CC3)cc2N1`, for which the Ki is > 20000 nM.

For the next data set, the target named is D(1B) dopamine receptor (Homo sapiens, UniProt P21918). Kind of data set: biochemical.
D(1B) dopamine receptor, sequence (P21918 whole entry): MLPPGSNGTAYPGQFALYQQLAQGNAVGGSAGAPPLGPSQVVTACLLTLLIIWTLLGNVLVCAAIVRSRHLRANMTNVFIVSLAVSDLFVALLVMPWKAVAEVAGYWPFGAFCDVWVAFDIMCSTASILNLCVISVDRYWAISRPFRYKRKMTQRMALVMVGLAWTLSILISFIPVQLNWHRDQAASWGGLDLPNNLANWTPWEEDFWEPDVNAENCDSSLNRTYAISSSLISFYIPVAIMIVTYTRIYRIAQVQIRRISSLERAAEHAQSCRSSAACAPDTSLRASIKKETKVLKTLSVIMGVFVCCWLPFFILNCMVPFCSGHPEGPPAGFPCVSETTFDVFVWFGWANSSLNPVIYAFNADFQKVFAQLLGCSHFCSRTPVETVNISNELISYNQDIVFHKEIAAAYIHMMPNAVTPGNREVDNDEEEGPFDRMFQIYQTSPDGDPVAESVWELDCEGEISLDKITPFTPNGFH
Conditions: not given
`O=C1CCc2ccc(OCCCCN3CCCN(c4ccc(O)c5c4OCC(=O)N5)CC3)cc2N1`: the Ki came to 15000 nM.
As for `Oc1ccc(N2CCN(CCCCOc3ccn4nccc4c3)CC2)c2cccnc12`, the inhibition constant Ki was found to be 5800 nM.
Take `CCCCn1cc(CCCOc2ccc(C(=O)NCCCN3CCCN(c4ccc(O)c5[nH]c(=O)ccc45)CC3)cc2OC)nn1`: the Ki is > 20000 nM.
Still for that read-out and setting: for `O=C1COc2c(N3CCN(CCCCOc4ccn5nccc5c4)CC3)ccc(O)c2N1` the value was 16000 nM; for `O=C1CCc2ccc(OCCCCN3CCN(c4ccc(O)c5oc(=O)ccc45)CC3)cc2N1`, > 20000 nM.

Another data set deals with 5-hydroxytryptamine receptor 2A (Homo sapiens, UniProt P28223). Kind of data set: biochemical.
5-hydroxytryptamine receptor 2A, sequence (P28223 whole entry): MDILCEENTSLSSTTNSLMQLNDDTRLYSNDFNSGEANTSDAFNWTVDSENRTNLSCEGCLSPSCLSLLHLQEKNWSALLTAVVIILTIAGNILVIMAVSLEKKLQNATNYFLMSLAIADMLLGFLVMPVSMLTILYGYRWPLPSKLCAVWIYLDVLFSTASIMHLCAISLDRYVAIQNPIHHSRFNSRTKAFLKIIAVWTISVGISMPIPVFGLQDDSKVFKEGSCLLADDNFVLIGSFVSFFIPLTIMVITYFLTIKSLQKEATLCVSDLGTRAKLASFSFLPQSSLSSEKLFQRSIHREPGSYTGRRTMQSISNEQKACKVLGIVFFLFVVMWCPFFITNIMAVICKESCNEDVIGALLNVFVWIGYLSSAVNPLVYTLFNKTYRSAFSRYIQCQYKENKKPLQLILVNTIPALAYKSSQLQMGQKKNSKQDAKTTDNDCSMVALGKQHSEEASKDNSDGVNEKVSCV
Conditions: not given
`O=C1CCc2ccc(OCCCCN3CCCN(c4ccc(O)c5c4OCC(=O)N5)CC3)cc2N1` showed a Ki of 2000 nM.
The same measure, in the same setting: next, `Oc1ccc(N2CCN(CCCCOc3ccn4nccc4c3)CC2)c2cccnc12`: 200 nM; `CCCCn1cc(CCCOc2ccc(C(=O)NCCCN3CCCN(c4ccc(O)c5[nH]c(=O)ccc45)CC3)cc2OC)nn1`: 4200 nM.
Take `O=C1COc2c(N3CCN(CCCCOc4ccn5nccc5c4)CC3)ccc(O)c2N1`: the Ki was determined as 1300 nM.
Same read-out and setting: for `O=C1CCc2ccc(OCCCCN3CCN(c4ccc(O)c5oc(=O)ccc45)CC3)cc2N1` the value was > 20000 nM.

Broadly, the Ki is the equilibrium dissociation constant of an inhibitor or competing ligand from its target. A higher Ki goes with a looser hold on the target. A word on the EC50: it is the midpoint of the concentration-response curve. Low readings indicate an effect from little substance, high ones a need for much substance. The Emax is the size of the effect at its maximum, as opposed to the concentration needed.

The values are drawn from ChEMBL document CHEMBL4014323, “Hydroxy-Substituted Heteroarylpiperazines: Novel Scaffolds for β-Arrestin-Biased D2R Agonists” (J Med Chem, 2017).
